Data published in ChEMBL document CHEMBL3259757, “B-ring modified aurones as promising allosteric inhibitors of hepatitis C virus RNA-dependent RNA polymerase” (Eur J Med Chem, 2014).
pIC50: −log10 of the molar value.

Legend:
[1] = test system: Hepatitis C virus subtype 1b; experiment: Inhibition of HCV J4 genotype 1b NS5Bdelta21 polymerase using homopolymeric RNA at 20 uM by SYBR Green assay
[2] = Inhibition of HCV J4 genotype 1b NS5Bdelta21 polymerase using homopolymeric RNA by SYBR Green assay; set-up: species or system Hepatitis C virus subtype 1b

SMILES	inhibition [1]	pIC50 [2]
O=C1/C(=C/c2cccc3ccccc23)Oc2cc(O)cc(O)c21	45%	–
CC(C)Cn1cc(/C=C2\Oc3cc(O)cc(O)c3C2=O)c2ccccc21	80.7%	5.10
CN(C)c1ccc(/C=C2\Oc3cc(O)cc(O)c3C2=O)cc1	90%	5.30
Cc1cccc(Cn2cc(/C=C3\Oc4cc(O)cc(O)c4C3=O)c3ccccc32)c1	95.6%	5.59
O=C1/C(=C/c2cn(Cc3ccccc3)c3ccccc23)Oc2cc(O)cc(O)c21	96.2%	5.59
O=C1/C(=C/c2ccc(CO)o2)Oc2cc(O)cc(O)c21	33%	< 4.80
CCCCn1cc(/C=C2\Oc3cc(O)cc(O)c3C2=O)c2cccc(C)c21	92.5%	–
Cn1cc(/C=C2\Oc3cc(O)cc(O)c3C2=O)c2ccccc21	90%	5.22
CCCCn1cc(/C=C2\Oc3cc(O)cc(O)c3C2=O)c2cc(C)ccc21	96%	–
O=C1/C(=C/c2cn(Cc3cccc(Br)c3)c3ccccc23)Oc2cc(O)cc(O)c21	96%	5.62
O=C1/C(=C/c2cnc[nH]2)Oc2cc(O)cc(O)c21	39%	< 4.80
O=C1/C(=C/c2cn(CCCc3ccccc3)c3ccccc23)Oc2cc(O)cc(O)c21	93%	5.57
O=C1/C(=C/c2ccc(-c3ccccc3)cc2)Oc2cc(O)cc(O)c21	93%	5.40
O=C1/C(=C/c2ccc(-c3cccs3)cc2)Oc2cc(O)cc(O)c21	97%	5.40
O=C1/C(=C/c2ccc3ccccc3c2)Oc2cc(O)cc(O)c21	95%	5.47
CCCCn1cc(/C=C2\Oc3cc(O)cc(O)c3C2=O)c2cccc(OC)c21	93.1%	–
Cn1c(/C=C2\Oc3cc(O)cc(O)c3C2=O)cc2ccccc21	97.8%	5.51
CCCCn1cc(/C=C2\Oc3cc(O)cc(O)c3C2=O)c2cc(O)ccc21	53.5%	–
O=C1/C(=C/c2ccc3[nH]cnc3c2)Oc2cc(O)cc(O)c21	81%	5.00
CCCCn1c(/C=C2\Oc3cc(O)cc(O)c3C2=O)cc2ccccc21	98.4%	5.52
O=C1/C(=C/c2ccc(C(F)(F)F)cc2)Oc2cc(O)cc(O)c21	96%	5.27
O=C1/C(=C/c2cn(CCc3ccccc3)c3ccccc23)Oc2cc(O)cc(O)c21	93.9%	5.49

The remaining lines, values ahead:

inhibition [1]	pIC50 [2]	SMILES
42%	–	O=C1/C(=C/c2ccc3ccccc3n2)Oc2cc(O)cc(O)c21
55%	< 4.80	Cn1cccc1/C=C1\Oc2cc(O)cc(O)c2C1=O
81%	–	CCCCOc1ccc(/C=C2\Oc3cc(O)cc(O)c3C2=O)cc1
99.3%	5.62	O=C1/C(=C/c2cn(Cc3cccc(O)c3)c3ccccc23)Oc2cc(O)cc(O)c21
70%	–	O=C(O)CCCn1cc(/C=C2\Oc3cc(O)cc(O)c3C2=O)c2ccccc21
27%	< 4.80	O=C1/C(=C/c2ccco2)Oc2cc(O)cc(O)c21
93.8%	–	CCCCn1cc(/C=C2\Oc3cc(O)cc(O)c3C2=O)c2cc(OC)ccc21
94.3%	–	CCCCn1ccc2cc(/C=C3\Oc4cc(O)cc(O)c4C3=O)ccc21
98.9%	5.64	CCCCn1cc(/C=C2\Oc3cc(O)cc(O)c3C2=O)c2cccc(O)c21
91.6%	–	CCCCn1c(C)c(/C=C2\Oc3cc(O)cc(O)c3C2=O)c2ccccc21
95.4%	5.57	COc1cccc(Cn2cc(/C=C3\Oc4cc(O)cc(O)c4C3=O)c3ccccc32)c1
90%	5.40	CCCCOc1ccc(/C=C2\Oc3cc(O)cc(O)c3C2=O)c(OCCCC)c1
93%	5.48	O=C1/C(=C/c2cn(CC3CCCCC3)c3ccccc23)Oc2cc(O)cc(O)c21
93%	5.26	O=C1/C(=C/c2ccc(N3CCCCC3)cc2)Oc2cc(O)cc(O)c21
94.7%	5.52	CC(C)=CCn1cc(/C=C2\Oc3cc(O)cc(O)c3C2=O)c2ccccc21
